One assay has as its system PARG in HeLa cell line. The assay is described as follows: PARG cell assay (PAR chain immunofluorescence after MMS). The class given is cell-based. The following applies: HeLa cells. The method in brief: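 Nuclear poly(ADP-ribose) chains in HeLa cells are read by indirect immunofluorescence with a mouse anti-PAR antibody applied overnight at 4° C after fixing and permeabilising. Cells get 1 h of compound, then 50 μg/mL MMS (final) for another hour. PAR persisting at that point reflects PARG inhibition.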

The target of a further assay is Human Full Length PARG (Homo sapiens (Human), UniProt Q86W56). The experiment in a line: PARG enzyme assay (TR-FRET). It is filed as biochemical.
The mark [1] stands for this setting: Homo sapiens, MMS treatment, read-out: PARG Cell IC50.
Where [2] appears, read: Homo sapiens, MMS 50 μg/mL, read-out: PARG Cell IC50 Geomean.
[3] abbreviates: read-out: PARG Biochem IC50 Geomean.
[4] abbreviates: MMS treatment, read-out: PARG Cell IC50.
The mark [5] stands for this setting: MMS 50 μg/mL, read-out: PARG Cell IC50 Geomean.

The structures appear in SMILES notation. Read-outs that look alike come from different tables or passages of the source.

Chain of Human Full Length PARG (Q86W56 whole entry): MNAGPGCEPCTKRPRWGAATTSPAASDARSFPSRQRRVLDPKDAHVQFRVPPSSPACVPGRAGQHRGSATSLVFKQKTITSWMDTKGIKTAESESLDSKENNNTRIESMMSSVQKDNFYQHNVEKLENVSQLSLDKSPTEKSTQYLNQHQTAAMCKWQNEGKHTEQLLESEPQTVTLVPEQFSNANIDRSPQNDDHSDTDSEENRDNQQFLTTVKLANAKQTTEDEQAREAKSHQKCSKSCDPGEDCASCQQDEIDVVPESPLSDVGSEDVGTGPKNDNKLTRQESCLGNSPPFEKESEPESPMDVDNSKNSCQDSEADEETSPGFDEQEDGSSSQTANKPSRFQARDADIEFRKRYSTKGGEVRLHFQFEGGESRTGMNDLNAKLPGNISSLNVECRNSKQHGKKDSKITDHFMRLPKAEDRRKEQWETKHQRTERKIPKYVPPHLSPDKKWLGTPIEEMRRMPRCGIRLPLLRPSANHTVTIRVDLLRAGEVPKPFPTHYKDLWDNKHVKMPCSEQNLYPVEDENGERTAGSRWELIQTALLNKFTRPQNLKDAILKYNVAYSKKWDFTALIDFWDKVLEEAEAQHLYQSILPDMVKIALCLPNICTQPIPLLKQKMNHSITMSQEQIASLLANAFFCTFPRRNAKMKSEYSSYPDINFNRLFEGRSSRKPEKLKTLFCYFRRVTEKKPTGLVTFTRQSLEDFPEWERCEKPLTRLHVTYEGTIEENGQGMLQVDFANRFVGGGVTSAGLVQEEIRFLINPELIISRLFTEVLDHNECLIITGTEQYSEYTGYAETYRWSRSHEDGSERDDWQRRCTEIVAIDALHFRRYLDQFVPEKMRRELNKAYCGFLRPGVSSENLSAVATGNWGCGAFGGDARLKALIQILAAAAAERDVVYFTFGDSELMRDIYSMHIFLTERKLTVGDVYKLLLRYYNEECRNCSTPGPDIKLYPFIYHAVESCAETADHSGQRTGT

As a reminder, the IC50 is the midpoint of a concentration-inhibition curve. As for `Cn1c(=O)n(CC(=O)N2CCCC2)c(=O)c2cc(S(=O)(=O)NC3(C)CC3)ccc21` [Example 475, 1-Methyl-N-(1-methylcyclopropyl)-2,4-dioxo-3-(2-oxo-2-pyrrolidin-1-yl-ethyl)quinazoline-6-sulfonamide], the IC50 in the assay with PARG in HeLa cell line (setting [1]) stood at 1170 nM; at Human Full Length PARG (read-out: PARG Biochem IC50) it was 6120 nM.

Regarding `Cc1cc(Cn2c(=O)c3cc(S(=O)(=O)NC4(C)CC4)ccc3n(CCN3CCOCC3)c2=O)on1` [Example 276], the IC50 in the assay with PARG in HeLa cell line (setting [2]) is 536 nM; at Human Full Length PARG (setting [3]) it was 255 nM.

Turning to `Cn1cc(Cn2c(=O)c3cc(S(=O)(=O)NC4(C#N)CC4)ccc3n(CC#N)c2=O)cn1` [Example 356], the IC50 with PARG in HeLa cell line (setting [2]) worked out at 16600 nM; at Human Full Length PARG (setting [3]), 396 nM.

Consider `Cn1cc(Cn2c(=O)c3cc(S(=O)(=O)NC4(C)CC4)ccc3n(CC3(F)COC3)c2=O)cn1` [Example 348], for which the IC50 with PARG in HeLa cell line (setting [2]) was found to be 328 nM; on Human Full Length PARG (setting [3]), 101 nM.

Consider `Cc1cc(Cn2c(=O)c3cc(S(=O)(=O)NC4(C)CC4)ccc3n(CCC(C)C)c2=O)on1` [Example 472, 1-Isopentyl-N-(1-methylcyclopropyl)-3-[(3-methylisoxazol-5-yl)methyl]-2,4-dioxo-quinazoline-6-sulfonamide], for which the IC50 was found to be 198 nM with PARG in HeLa cell line (setting [1]) and 273 nM on Human Full Length PARG (read-out: PARG Biochem IC50).

Turning to `Cc1cc(Cn2c(=O)c3cc(S(=O)(=O)NC4(C)CC4)ccc3n(CCCC(C)C)c2=O)on1` [Example 474, 1-Isohexyl-N-(1-methylcyclopropyl)-3-[(3-methylisoxazol-5-yl)methyl]-2,4-dioxo-quinazoline-6-sulfonamide], the IC50 in the assay on PARG in HeLa cell line (setting [1]) worked out at 548 nM; on Human Full Length PARG (read-out: PARG Biochem IC50), 331 nM.

Regarding `Cc1cc(Cn2c(=O)c3cc(S(=O)(=O)NC4(CF)CC4)ccc3n(Cc3cocn3)c2=O)on1` [Example 559, N-[1-(Fluoromethyl)cyclopropyl]-3-[(3-methylisoxazol-5-yl)methyl]-1-(oxazol-4-ylmethyl)-2,4-dioxo-quinazoline-6-sulfonamide], the IC50 is 60 nM with PARG in HeLa cell line (setting [1]) and 85 nM at Human Full Length PARG (read-out: PARG Biochem IC50).

For the molecule `Cc1cc(Cn2c(=O)c3cc(S(=O)(=O)NC4(C)CC4)ccc3n(CC3CCN(C)CC3)c2=O)on1` [Example 371], the IC50 in the assay on PARG in HeLa cell line (setting [2]) was determined as 1110 nM; on Human Full Length PARG (setting [3]) it was 258 nM.

For the molecule `Cc1cc(Cn2c(=O)c3cc(S(=O)(=O)NC4(C)CC4)cc(-c4cnn(C)c4)c3n(C)c2=O)on1` [Example 483, 1-Methyl-N-(1-methylcyclopropyl)-3-[(3-methylisoxazol-5-yl)methyl]-8-(1-methylpyrazol-4-yl)-2,4-dioxo-quinazoline-6-sulfonamide], the results for the IC50 in the assay with PARG in HeLa cell line (setting [1]) and at Human Full Length PARG (read-out: PARG Biochem IC50) were 845 nM and 1690 nM, respectively.

Regarding `COCCn1c(=O)n(Cc2cnn(C)c2)c(=O)c2cc(S(=O)(=O)NC3(CF)CC3)ccc21` [Example 462, N-[1-(Fluoromethyl)cyclopropyl]-1-(2-methoxyethyl)-3-[(1-methylpyrazol-4-yl)methyl]-2,4-dioxo-quinazoline-6-sulfonamide], the IC50 was found to be 322 nM with PARG in HeLa cell line (setting [1]) and 244 nM on Human Full Length PARG (read-out: PARG Biochem IC50).

`Cn1cc(Cn2c(=O)c3cc(S(=O)(=O)NC4(CF)CC4)ccc3n(CC3CC3(F)F)c2=O)cn1` (stereo not shown) [Example 443, 1-[(2,2-Difluorocyclopropyl)methyl]-N-[1-(fluoromethyl)cyclopropyl]-3-[(1-methylpyrazol-4-yl)methyl]-2,4-dioxo-quinazoline-6-sulfonamide]: the 50% inhibitory concentration (IC50) with PARG in HeLa cell line (setting [1]) was 67 nM; at Human Full Length PARG (read-out: PARG Biochem IC50), 58 nM.

As to `Cn1c(=O)n(Cc2cnn3ccccc23)c(=O)c2cc(S(=O)(=O)NC3(C)CC3)ccc21` [Example 434, 1-Methyl-N-(1-methylcyclopropyl)-2,4-dioxo-3-(pyrazolo[1,5-a]pyridin-3-ylmethyl)quinazoline-6-sulfonamide], the values for the IC50 in the assay with PARG in HeLa cell line (setting [1]) and on Human Full Length PARG (read-out: PARG Biochem IC50) were 609 nM and 5910 nM, respectively.

Take `Cc1cc(Cn2c(=O)c3cc(S(=O)(=O)NC4(CF)CC4)ccc3n(Cc3csc(C)n3)c2=O)on1` [Example 550, N-[1-(Fluoromethyl)cyclopropyl]-3-[(3-methylisoxazol-5-yl)methyl]-1-[(2-methylthiazol-4-yl)methyl]-2,4-dioxo-quinazoline-6-sulfonamide]: the IC50 with PARG in HeLa cell line (setting [4]) was 134 nM; on Human Full Length PARG (read-out: PARG Biochem IC50), 191 nM.

As to `Cc1cc(Cn2c(=O)n(Cc3cnn(C)c3)c(=O)c3cc(S(=O)(=O)NC4(CF)CC4)ccc32)on1` [Example 441, N-[1-(Fluoromethyl)cyclopropyl]-1-[(3-methylisoxazol-5-yl)methyl]-3-[(1-methylpyrazol-4-yl)methyl]-2,4-dioxo-quinazoline-6-sulfonamide], the IC50 in the assay on PARG in HeLa cell line (setting [4]) is 74 nM; on Human Full Length PARG (read-out: PARG Biochem IC50) it was 24 nM.

`Cn1cc(Cn2c(=O)c3cc(S(=O)(=O)NC4(CF)CC4)ccc3n(Cc3nccn3C)c2=O)cn1` [Example 565, N-[1-(Fluoromethyl)cyclopropyl]-1-[(1-methylimidazol-2-yl)methyl]-3-[(1-methylpyrazol-4-yl)methyl]-2,4-dioxo-quinazoline-6-sulfonamide]: the results for the IC50 with PARG in HeLa cell line (setting [1]) and at Human Full Length PARG (read-out: PARG Biochem IC50) were 558 nM and 156 nM, respectively.

With `Cn1cc(Cn2c(=O)c3cc(S(=O)(=O)NC4(C)CC4)ccc3n(CC3CCOCC3)c2=O)cn1` [Example 269], the half-maximal inhibitory concentration (IC50) with PARG in HeLa cell line (setting [2]) came out at 98 nM; at Human Full Length PARG (setting [3]), 57 nM.

Take `Cc1cc(Cn2c(=O)c3cc(S(=O)(=O)NC4(C)CC4)cc(Br)c3n(C)c2=O)on1` [Example 482, 8-Bromo-1-methyl-N-(1-methylcyclopropyl)-3-[(3-methylisoxazol-5-yl)methyl]-2,4-dioxo-quinazoline-6-sulfonamide]: the results for the IC50 with PARG in HeLa cell line (setting [1]) and at Human Full Length PARG (read-out: PARG Biochem IC50) were 274 nM and 830 nM, respectively.

For the molecule `Cn1c(=O)n(Cc2cnc(NC(=O)OC(C)(C)C)s2)c(=O)c2cc(S(=O)(=O)NC3(C)CC3)ccc21` [Example 214], the IC50 in the assay on PARG in HeLa cell line (setting [5]) came out at 3470 nM; at Human Full Length PARG (setting [3]), 411 nM.

For `Cn1c(=O)c2cc(S(=O)(=O)NC3(C)CC3)ccc2n(Cc2ccccc2C#N)c1=O` [Example 68], the IC50 in the assay on PARG in HeLa cell line (setting [2]) is 306 nM; at Human Full Length PARG (setting [3]) it was 324 nM.

For the molecule `CCn1cncc1Cn1c(=O)n(Cc2cnn(C)c2)c(=O)c2cc(S(=O)(=O)NC3(CF)CC3)ccc21` [Example 576, 1-[(3-Ethylimidazol-4-yl)methyl]-N-[1-(fluoromethyl)cyclopropyl]-3-[(1-methylpyrazol-4-yl)methyl]-2,4-dioxo-quinazoline-6-sulfonamide], the IC50 was determined as 2160 nM in the assay on PARG in HeLa cell line (setting [1]) and 42 nM on Human Full Length PARG (read-out: PARG Biochem IC50).

In the case of `Cc1cc(Cn2c(=O)c3cc(S(=O)(=O)NC4(C)CC4)ccc3n(CC3CCCCO3)c2=O)on1` (stereo not shown) [Example 266], the values for the IC50 with PARG in HeLa cell line (setting [5]) and at Human Full Length PARG (setting [3]) were 214 nM and 296 nM, respectively.

In the case of `CCOC(=O)Cn1c(=O)n(Cc2cc(C)no2)c(=O)c2cc(S(=O)(=O)NC3(C)CC3)ccc21` [Example 332], the IC50 came to 462 nM in the assay with PARG in HeLa cell line (setting [2]) and 356 nM on Human Full Length PARG (setting [3]).

In the case of `CCCCn1c(=O)n(Cc2cc(C)no2)c(=O)c2cc(S(=O)(=O)NC3(CF)CC3)ccc21` [Example 536, 1-Butyl-N-[1-(fluoromethyl)cyclopropyl]-3-[(3-methylisoxazol-5-yl)methyl]-2,4-dioxo-quinazoline-6-sulfonamide], the values for the IC50 in the assay on PARG in HeLa cell line (setting [4]) and at Human Full Length PARG (read-out: PARG Biochem IC50) were 376 nM and 261 nM, respectively.

In the case of `Cc1cc(Cn2c(=O)c3cc(S(=O)(=O)NC4(C)CC4)ccc3n(CC#N)c2=O)on1` [Example 503, 1-(Cyanomethyl)-N-(1-methylcyclopropyl)-3-[(3-methylisoxazol-5-yl)methyl]-2,4-dioxo-quinazoline-6-sulfonamide], the IC50 was determined as 350 nM in the assay with PARG in HeLa cell line (setting [1]) and 604 nM on Human Full Length PARG (read-out: PARG Biochem IC50).

In the case of `Cc1cc(Cn2c(=O)c3cc(S(=O)(=O)NC4(CF)CC4)ccc3n(CC3COC3)c2=O)on1` [Example 522, N-[1-(Fluoromethyl)cyclopropyl]-3-[(3-methylisoxazol-5-yl)methyl]-1-(oxetan-3-ylmethyl)-2,4-dioxo-quinazoline-6-sulfonamide], the IC50 in the assay with PARG in HeLa cell line (setting [1]) worked out at 923 nM; at Human Full Length PARG (read-out: PARG Biochem IC50), 112 nM.

In the case of `Cn1cc(Cn2c(=O)c3cc(S(=O)(=O)NC4(C)CC4)ccc3n(CCCOC(F)(F)F)c2=O)cn1` [Example 264], the IC50 amounted to 187 nM in the assay on PARG in HeLa cell line (setting [2]) and 256 nM at Human Full Length PARG (setting [3]).

For the molecule `Cc1cc(Cn2nc(C(C)C)c3ccc(S(=O)(=O)NC4(C)CC4)cc3c2=O)on1` [Example 310], the figures for the IC50 with PARG in HeLa cell line (setting [2]) and on Human Full Length PARG (setting [3]) were 455 nM and 307 nM, respectively.

For the molecule `Cn1cc(Cn2c(=O)c3cc(S(=O)(=O)NC4(C)CC4)c(F)cc3n(CC3COC3)c2=O)cn1` [Example 394, 7-Fluoro-N-(1-methylcyclopropyl)-3-[(1-methylpyrazol-4-yl)methyl]-1-(oxetan-3-ylmethyl)-2,4-dioxo-quinazoline-6-sulfonamide], the IC50 in the assay on PARG in HeLa cell line (setting [2]) was 326 nM; on Human Full Length PARG (setting [3]) it was 66 nM.

In the case of `CN(C)CC#Cc1cc(S(=O)(=O)NC2(C)CC2)cc2c(=O)n(Cc3cnn(C)c3)c(=O)[nH]c12` [Example 429, 8-[3-(Dimethylamino)prop-1-ynyl]-N-(1-methylcyclopropyl)-3-[(1-methylpyrazol-4-yl)methyl]-2,4-dioxo-1H-quinazoline-6-sulfonamide], the IC50 in the assay with PARG in HeLa cell line (setting [1]) is 1520 nM; on Human Full Length PARG (read-out: PARG Biochem IC50) it was 1770 nM.

In the case of `Cc1nnc(Cn2c(=O)c3cc(S(=O)(=O)NC4(C)CC4)ccc3n(C)c2=O)s1` [Example 500, 1-Methyl-N-(1-methylcyclopropyl)-3-[(5-methyl-1,3,4-thiadiazol-2-yl)methyl]-2,4-dioxo-quinazoline-6-sulfonamide], the IC50 was 350 nM in the assay with PARG in HeLa cell line (setting [4]) and 472 nM at Human Full Length PARG (read-out: PARG Biochem IC50).

For `Cc1cc(Cn2c(=O)c3cc(S(=O)(=O)NC4(C)CC4)ccc3n(CC3(CO)COC3)c2=O)on1` [Example 340], the IC50 in the assay with PARG in HeLa cell line (setting [2]) is 3480 nM; on Human Full Length PARG (setting [3]), 389 nM.

Turning to `C#CC1(NS(=O)(=O)c2ccc3[nH]c(=O)n(Cc4cnn(C)c4)c(=O)c3c2)CC1` [Example 431, N-(1-Ethynylcyclopropyl)-3-[(1-methylpyrazol-4-yl)methyl]-2,4-dioxo-1H-quinazoline-6-sulfonamide], the IC50 came out at 3030 nM with PARG in HeLa cell line (setting [4]) and 3720 nM on Human Full Length PARG (read-out: PARG Biochem IC50).

These data come from patent publication US10239843B2 (CANCER RESEARCH TECHNOLOGY LIMITED, priority 2014, dated 2019).
